Here are results for two compounds from patent US7732442B2 (Ono Pharmaceutical Co., Ltd., priority 2003, dated 2010).

In the assay the target is T1, human CCR4 (Homo sapiens, UniProt P51679).
T1 construct: expressed in transfected cells; host or cells: CHO-dhfr(-)
T1 sequence (P51679 1-360): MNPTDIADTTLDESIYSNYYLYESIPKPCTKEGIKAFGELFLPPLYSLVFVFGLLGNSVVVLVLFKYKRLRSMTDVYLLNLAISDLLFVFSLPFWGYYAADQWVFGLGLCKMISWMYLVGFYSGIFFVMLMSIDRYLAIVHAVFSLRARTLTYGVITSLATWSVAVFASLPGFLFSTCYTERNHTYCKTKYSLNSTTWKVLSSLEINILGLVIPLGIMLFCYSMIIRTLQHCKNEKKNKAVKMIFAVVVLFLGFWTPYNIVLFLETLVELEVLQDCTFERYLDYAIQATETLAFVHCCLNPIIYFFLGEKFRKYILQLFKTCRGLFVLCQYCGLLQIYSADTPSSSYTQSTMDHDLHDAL
The assay is described as follows: Inhibition test on activity of MDC mediated by CCR4 (MDC-induced transient increase of Ca ions) in CCR4/CHO cells. It counts as cell-based. The conditions noted are these: in the presence of 0.3% BSA; human MDC 10 nM; CCR4/CHO cell; read-out: IC50 value (inhibition of Ca2+ transient increase by MDC). The protocol: Human bone marrow cell cDNA was prepared using Marathon cDNA amplification kit (manufactured by Clontech). PCR primers hCCR4XbaI-F1 (SEQ ID NO:1) and hCCR4XbaI-R1 (SEQ ID NO:2) were designed based on the sequence of GenBankX85740.
Using the human bone marrow cell cDNA as the template and using Ex Taq (manufactured by Takara), a PCR reaction (2 minutes at 95° C.→[30 seconds at 95° C., 45 seconds at 60° C., 1 minute at 72° C.]×35 times) was carried out. The thus amplified PCR product was subjected to 1% agarose gel electrophoresis, purified using QIAquick Gel Extraction Kit (manufactured by QUIAGEN) and then digested with a restriction enzyme XbaI. […]
The thus established human CCR4 stably overexpressing CHO cell (CCR4/CHO cell) was suspended in Ham's F-12 medium and FBS (10%) and dispensed into a 96-well plate at 3.0×10^4 cells/well. […] Transient increase in the intracellular Ca^2+ concentration induced by the human MDC was measured using a Ca^2+ detector for 96-well (manufactured by Hamamatsu Photonics), and inhibition ratio (%) of the test compound was calculated by the following equation: Inhibition ratio=[(Ec−Ea)/Ec]×100 • Ec: measured value of Ca^2+ transient increase by MDC; and • Ea: measured value of Ca^2+ transient increase by MDC when a test compound was added […]

Consider `COc1ccc(COc2cc(Br)cnc2NS(=O)(=O)c2ccc(C)cc2)cc1OCCN(C)C` [Example 2(2), N-[5-bromo-3-({3-[2-(dimethylamino)ethoxy]-4-methoxybenzyl}oxy)pyridin-2-yl]-4-methylbenzenesulfonamide], for which the half-maximal inhibitory concentration (IC50) (in general, the midpoint of a concentration-inhibition curve) stood at 230 nM.

Take `Cc1cnc(NS(=O)(=O)c2ccccc2Cl)c(OCc2ccc(Cl)c(OCC3CCN(C)CC3)c2)n1` [Example 6(1)]: the IC50 came out at 80 nM.
